Laboratory results from PMC6222780, “Synthesis, Spectroscopic Analysis and Assessment of the Biological Activity of New Hydrazine and Hydrazide Derivatives of 3-Formylchromone” (Molecules : A Journal of Synthetic Chemistry and Natural …, 2018).

Experiments:
[1] = test system: L929 cell line (mouse fibroblast cell line); experiment: XTT assay, cell proliferation study; type: cell-based; settings: L929, XTT; for IC50: 24 h incubation, 0.01–1250 µmol/L; for The Range of Influence [%, Control = 100%]: viability over 0.01–1250 µmol/L
Procedure: (§1) Four independent experiments (n = 4 for each used concentration) were performed. […] This indicates good or very good (in the case of 1, 3, 5, 8, 11) selectivity of action. […] Due to the dual action of these compounds, it would be advisable to study their effect on stimulation of proliferation at concentrations below 0.01 μmol/L. This dual action may be desirable during therapy, because the dosage may affect the nature of the compounds.
The mouse fibroblast cell line L929 (Sigma-Aldrich) was grown in MEM (Minimum Essential Medium) (Biowest, Nuaillé, France) containing 10% of Fetal Bovine Serum (Biowest), 1 mmol/L sodium pyruvate (Biological Industries, Cromwell, CT, USA), 0.5 mmol/L non-essential amino acids (Sigma-Aldrich) and 100 units/mL penicillin with […] streptomycin (Biological Industries) in an incubator at 37 °C with 5% CO2. Cells were plated and grown to 80% confluence before the initiation of the assay.
(§2) The XTT assay was used to evaluate cell metabolic activity. […] The number of viable cells is correlated with the colour intensity determined by photometric measurements. XTT (Serva, Heidelberg, Germany) was dissolved in MEM without phenol red (PAN-Biotech, Aidenbach, Germany) or DMEM without phenol red (PAN-Biotech) at a concentration of 1 mg/mL. Phenazine metosulphate (PMS) (Serva) was dissolved in phosphate-buffered saline (PBS, 5 mmol/L). PMS solution was then added to the XTT solution at a concentration of 25 μM. Investigated compounds were dissolved in dimethyl sulfoxide (DMSO) to obtain stock solutions.
(§3) L929 and EA.hy926 cells were seeded into 96-well plates at a density of 1 × 10^4 cells per well. They were cultured for 24 h in the incubator (37 °C and 5% CO2). After that time, the medium was removed. Then the 100 µL of medium containing investigated compounds (in the range of concentration 0.01–1250 µmol/L) or only culture medium (blank control) were added. Cisplatin was used as a reference compound. Cells were further incubated for 24 h. At the third day, the old medium were removed and cells were washed with PBS. 100 µL of culture medium with the additional 50 µL of the XTT/PMS solution were added to each well. Plates were incubated in the dark for 3 h at 37 °C. Then, the plates were swayed and an aliquot of 100 µL from each well was transferred into the corresponding well of a new plate. Finally, the absorbance was measured by using the microplate reader (Synergy H1, BioTek, Winooski, VT, USA) at a wavelength of 450 nm. The cell viability was expressed as a percentage of the control values (blanks).

[2] = test system: EA.hy926 cell line (the human umbilical vein, somatic cell hybrid); experiment: XTT assay, cell proliferation study; type: cell-based; settings: for IC50 / The Range of Influence [%, Control = 100%] / Stimulating effect on proliferation: EA.hy926, XTT; for IC50: 24 h incubation, 0.01–1250 µmol/L; for The Range of Influence [%, Control = 100%]: viability over 0.01–1250 µmol/L; for Selectivity of action (IC50 EA.hy926 versus L929): IC50 lower for EA.hy926 than for L929
Procedure: as §1
The EA.hy926 cell line (the human umbilical vein, somatic cell hybrid, American Type Culture Collection, Manassas, VA, USA) was used to evaluate the cytotoxicity of novel compounds. Cells were grown in Dulbecco’s Modified Eagle’s Medium (DMEM) which contains 10% of Fetal Bovine Serum (Biowest), 2 mmol/L glutamine (Sigma-Aldrich) and 100 units/mL penicillin with […] streptomycin (Biological Industries). Cells were plated and grown in an incubator at 37 °C with 5% CO2 to 80% confluence before the initiation of the assay.
as §2, §3

[3] = test system: Streptococcus pneumoniae ATCC 49619; experiment: Disc diffusion, inhibition of growth zones; type: cell-based; settings: S. pneumoniae; discs at 100 or 200 µg/mL, 24 h at 37 °C
Procedure: (§4) Fifteen strains of microorganisms from different species were used. The growth inhibition zones were evaluated in two independent experiments (n = 2 in each of them), and the potential inhibitors of microbial growth are presented in Table 3. The hydrazine and hydrazide derivatives of 3-formylchromone constitute a class of potential antimicrobial agents and are worthy of further investigation. […] In case of N. meningitidis (result with *) the action of 9 was noted just for 100 µg/mL and the influence in concentration of 200 µg/mL was not observed.
(§5) The microbial reference strains representing different families of bacteria and fungi, pathogenic for man and animals, were used. The 15 strains were derived from international microbial collections held by the Department of Pharmaceutical Microbiology and Microbiological Diagnostics of the Medical University of Lodz: Candida albicans ATCC 10231, Enterococcus faecalis ATCC 29212, Klebsiella pneumoniae ATCC 700603, Pseudomonas aeruginosa NCTC 6749, Proteus vulgaris CCM 1799, Staphylococcus epidermidis ATCC 12228, Shigella flexneri ATCC 12022, Streptococcus pneumoniae ATCC 49619, Streptococcus pyogenes ATCC 19615, Corynebacterium jeikeium K411, Escherichia coli ATCC 25922, Staphylococcus aureus NCTC 4135, Streptococcus dysgalactiae subsp. equisimilis ATCC 12394, Neisseria meningitidis DSM 25942, Listeria monocytogenes PCM 2191.
(§6) The strains were stored at −80 °C, frozen in a 1:1 mixture of Brain Heart Infusion (BHI) broth and glycerol. The reference strains, depending on the growth requirements, were grown on a solid medium—nutrient agar, nutrient agar with 5% addition of lambs defibrinated blood or (in the case of Corynebacterium jeikeium) Triptic Soy Agar (TSA) with the addition of sheep blood, yeast extract and Tween-80. The susceptibility of the strains to chemical compounds was measured analogously to the adopted method of diffusion and disc preparation of antibiotics for compounds introduced into treatment. After receiving the pure culture of the reference strain, obtained from frozen samples and grown on the appropriate medium for growth requirements, suspensions of the tested strains were prepared in a physiological NaCl solution with a density of 0.5 on the McFarland scale. These suspensions were seeded with a cotton ball over the entire surface of the test medium. Discs impregnated with the test compound at a concentration of 100 or 200 µg/mL were then placed on it and incubated for 24 h at 37 °C.

[4] = test system: Fifteen strains of microorganisms from different species; experiment: Initial antimicrobial screening by disc diffusion on the whole panel; type: cell-based; settings: 15 strains, discs at 100 or 200 µg/mL
Procedure: as §4, §5, §6

[5] = test system: Staphylococcus epidermidis ATCC 12228; experiment: Disc diffusion, inhibition of growth zones; type: cell-based; settings: S. epidermidis; discs at 100 or 200 µg/mL, 24 h at 37 °C
Procedure: as §4, §5, §6

[6] = test system: Neisseria meningitidis DSM 25942; experiment: Disc diffusion, inhibition of growth zones; type: cell-based; settings: N. meningitidis
Procedure: as §4, §5, §6

SMILES	IC50 [1]	The Range of Influence [%, Control = 100%] [1]	IC50 [2]	The Range of Influence [%, Control = 100%] [2]	Inhibition of growth zones (lowest effective studied concentration) [3]	Stimulating effect on proliferation [1]	Stimulating effect on proliferation [2]	Selectivity of action (IC50 EA.hy926 versus L929) [2]	Inhibition of microbial growth (result in words) [4]	Inhibition of growth zones (lowest effective studied concentration) [5]	IC50 ([1]; Mus musculus)	melting point	Influence on growth at 200 µg/mL ([6]; disc at 200 µg/mL)	Inhibition of growth zones (lowest effective studied concentration) ([6]; discs at 100 or 200 µg/mL, 24 h at 37 °C)
N.N.[Cl][Pt][Cl] [Cisplatin, reference compound]	74.4 µM	8.49–55.70%	67.4 µM	8.71–75.14%										
O=c1c(C=NNc2cc(F)ccc2F)coc2ccccc12 [Compound 1, 3-[(2,5-Difluorophenyl)-hydrazonomethyl]-chromen-4-one]	209 µM	27.64–101.8%	59.1 µM	14.79–106.26%	100 µg/mL	weak stimulating effect	weak stimulating effect	very good	exhibit antimicrobial potential					
O=c1c(C=NNc2ccc(C(F)(F)F)cc2)coc2ccccc12 [Compound 3, 3-[(4-Trifluoromethylphenyl)-hydrazonomethyl]-chromen-4-one]		55.91–96.98%	975 µM	37.40–101.33%			slightly stimulated	very good	not able to inhibit microbial growth					
O=c1c(C=NNc2cc(C(F)(F)F)cc(C(F)(F)F)c2)coc2ccccc12 [Compound 4, 3-[(3,5-Bis-trifluoromethylphenyl)-hydrazonomethyl]-chromen-4-one]	1030 µM	45.61–101.31%	534 µM	28.46–102.18%		weak stimulating effect	weak stimulating effect		exhibit antimicrobial potential	100 µg/mL				
O=C(N/N=C/c1coc2ccccc2c1=O)c1ccc(F)cc1 [Compound 5, 4-Fluorobenzoic acid [1-(4-oxo-4H-chromen-3-yl)-meth-(E)-ylidene]-hydrazide]		16.03–56.35%		11.81–60.64%				very good	not able to inhibit microbial growth		65.9 µM	201 to 202 °C		
O=c1c(C=NNc2c(F)c(F)cc(F)c2F)coc2ccccc12 [Compound 6, 3-[(2,3,5,6-Tetrafluorophenyl)-hydrazonomethyl]-chromen-4-one]	728 µM	40.05–93.11%	578 µM	24.47–97.86%					not able to inhibit microbial growth					
Cc1ccc(F)cc1NN=Cc1coc2ccccc2c1=O [Compound 7, 3-[(5-Fluoro-2-methylphenyl)-hydrazonomethyl]-chromen-4-one]	954 µM	44.89–96.11%	953 µM	42.43–101.05%			slightly stimulated		exhibit antimicrobial potential	100 µg/mL				
O=c1c(C=NNc2c(F)cc(F)cc2F)coc2ccccc12 [Compound 8, 3-[(2,4,6-Trifluorophenyl)-hydrazonomethyl]-chromen-4-one]	98.5 µM	38.11–64.40%	18.1 µM	23.31–63.94%				very good	not able to inhibit microbial growth					
O=c1c(C=NNc2c(F)c(F)c(F)c(F)c2F)coc2ccccc12 [Compound 9, 3-(Pentafluorophenyl-hydrazonomethyl)-chromen-4-one]	386 µM	13.92–85.11%	253 µM	13.15–69.88%					exhibit antimicrobial potential				not observed	100 µg/mL
O=c1c(C=NNc2ccccc2C(F)(F)F)coc2ccccc12 [Compound 10, 3-[(2-Trifluoromethylphenyl)-hydrazonomethyl]-chromen-4-one]	1210 µM	48.62–73.47%	645 µM	31.21–94.69%					exhibit antimicrobial potential	100 µg/mL				
